Results reported in patent US10220548B2, “Humidity activated formulation for volatile compounds” (AgroFresh, Inc., priority 2013, dated 2019).

Tests used:
[1] = Quantification of amount of active in coating by GC; format: physicochemical; conditions: PVOH/active/SDS coating; for % Incorporated active (compared to theoretical maximum amount): theoretical maximum 25 wt. % of active
Method: The coating is peeled off the PET backer and then placed in a petri-dish in a fume-hood overnight to allow any residual non-encapsulated active to evaporate. The following day, the delaminated coating is precisely weighed into a 20 mL GC vial. 5.0 grams of DI water is added, and the vial immediately sealed. The contents of the vial are gently swirled to dissolve the coating in the water, and at least 10 hours are allowed for the headspace to equilibrate with the aqueous phase. A headspace sample is then removed by syringe for injection into the GC column.

[2] = at 25° C.; known value; cited from earlier work
[3] = Vapor pressure and saturated headspace concentration of pure reference compound; format: physicochemical; conditions: for saturated headspace concentration of reference samples: pure compound 0.5 mL in vial, calculated from known vapor pressures at room temperature
Method: The strips of coating are then placed inside GC headspace vials (20 mL). In some cases a droplet of water (0.10 mL) is added to the bottom of the vial (avoiding contact with the strip) before the vial is sealed, in order to generate an atmosphere of 100% relative humidity (RH).
(§1) Analysis of Release of trans-2-hexenal or guaiacol from Coating into Headspace: A strip of approximately 13.6 cm^2 is cut from the middle of the coated PET sheet. The coating is peeled off the PET backer and then placed in a petri-dish in a fume-hood overnight to allow any residual non-encapsulated active to evaporate. A GC vial, 20 mL, with a screw-on septum-cap is prepared at 95% humidity by adding a mini plastic ultracentrifuge vial with the cap cut off containing approximately 0.20 g of saturated potassium nitrate (KNO3) solution, with a few grains of solid KNO3 added to maintain saturation. After allowing time (at least 2 hours) for the humidity in the vial to equilibrate, the strip of coating is added to the GC vial, and the vial immediately sealed. After allowing the desired amount of time for release of the active from the coating, a headspace sample is removed by syringe for injection into the GC column. The concentration in the Headspace is determined by comparing the GC Peak Area of the sample to the GC Peak Area of the headspace from a vial containing 0.5 mL of pure trans-2-hexenal, or guaiacol.

[4] = Analysis of release of trans-2-hexenal or guaiacol from coating into headspace at 95% RH; format: physicochemical; conditions: PVOH coating strip, room temperature/95% RH
Method: as §1

Row | Compound | % Incorporated active (compared to theoretical maximum amount) [1] [%] | vapor pressure [2] [kPa] | saturated concentration in the headspace of reference vial ([3]; pure compound 0.50 mL in vial, calculated from known vapor pressure at 25° C.) [ppm] | Concentration of guaiacol in headspace (ppm) ([4]; 0.62 hours after strip inserted into GC vial) | Concentration of guaiacol in headspace (ppm) ([4]; 1.2 hours) | Concentration of guaiacol in headspace (ppm) ([4]; 1.75 hours) | Concentration of guaiacol in headspace (ppm) ([4]; 3.52 hours) | Concentration of guaiacol in headspace (ppm) ([4]; 23.75 hours) | Absolute amount of active incorporated (wt. %) [1] [% wt. %] | saturated headspace concentration of reference samples [3] | Concentration of trans-2-hexenal in headspace (ppm) ([4]; 0.17 hours after strip inserted into GC vial) | Concentration of trans-2-hexenal in headspace (ppm) ([4]; 0.70 hours) | Concentration of trans-2-hexenal in headspace (ppm) ([4]; 1.25 hours) | Concentration of trans-2-hexenal in headspace (ppm) ([4]; 1.78 hours) | Concentration of trans-2-hexenal in headspace (ppm) ([4]; 2.33 hours) | Concentration of trans-2-hexenal in headspace (ppm) ([4]; 2.87 hours) | Concentration of trans-2-hexenal in headspace (ppm) ([4]; 3.42 hours) | Concentration of trans-2-hexenal in headspace (ppm) ([4]; 4.52 hours) | Concentration of trans-2-hexenal in headspace (ppm) ([4]; 17.77 hours)
1 | CCCCCCO [Formulation 1-Hexanol, 1-hexanol] | 75.0 | 0.124 | 1224 | – | – | – | – | – | – | – | – | – | – | – | – | – | – | – | –
2 | COc1ccccc1O [Guaiacol, guaiacol] | 68.7 | – | – | 76.17 | 81.90 | 80.20 | 82.55 | 89.52 | 17.2 | 145 ppm (V/V) | – | – | – | – | – | – | – | – | –
3 | CCC/C=C/C=O [Trans-2-hexenal, trans-2-hexenal] | 71.9 | – | – | – | – | – | – | – | 18.0 | 8685 ppm (V/V) | 350.60 | 589.45 | 1266.50 | 2036.63 | 3484.15 | 4541.25 | 6173.40 | 7357.28 | 6742.25
